According to PubChem BioAssay (NCI):
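Exposure lasted 48 hours, with cells grown in 96-well plates and compounds tested at five concentrations. GI50 marks 50% less growth. The concentration for full growth arrest is given as TGI.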

Key:
Assay in all cases: inhibition of tumour cell growth, NCI panel, 48 h
[1] = system: 786-0 renal
[2] = system: A549 NSCLC
[3] = system: EKVX NSCLC
[4] = system: MALME-3M melanoma
[5] = system: MDA-MB-435
[6] = system: MDA-N
[7] = system: NCI/ADR-RES ovarian
[8] = system: OVCAR-4 ovarian
[9] = system: RPMI-8226 leukemia
[10] = system: SN12C renal
[11] = system: BT-549 breast

Compound | TGI [1] [µM] | TGI [2] [µM] | TGI [3] [µM] | TGI [4] [µM] | TGI [5] [µM] | TGI [6] [µM] | TGI [7] [µM] | TGI [8] [µM] | TGI [9] [µM] | TGI [10] [µM] | TGI [11] [µM] | GI50 [2] [µM] | GI50 [11] [µM] | GI50 [3] [µM] | GI50 [4] [µM] | GI50 [5] [µM] | GI50 [7] [µM] | GI50 [9] [µM] | GI50 [10] [µM]
O=C(/C=C/c1cccs1)c1ccc(Cl)s1 | > 10 | > 100 | > 100 | > 100 | 37.3 | > 10 | > 100 | > 100 | 44 | 34.8 | – | – | – | – | – | – | – | – | –
N#Cc1c(-c2ccccc2)c(C#N)c(=S)n(C2OCC(O)C(O)C2O)c1N (stereo unspecified) | > 100 | > 100 | – | > 100 | > 100 | > 100 | > 100 | – | > 100 | > 100 | > 100 | – | – | – | – | – | – | – | –
CC(=O)O[C@H]1CC[C@@]2(C)C(=CC[C@H]3[C@@H]4C/C(=C\c5ccncc5)[C@H](OC(C)=O)[C@@]4(C)CC[C@@H]32)C1 | 23.3 | 29.8 | 36.3 | 21.7 | 36.5 | 46.8 | 27.3 | 18.2 | 7.6 | 33 | 10.9 | – | – | – | – | – | – | – | –
COc1cc2c(cc1O)-c1c(OC)c(O)cc3c1C(C2)N(C)CC3 (stereo unspecified) | > 100 | > 100 | > 100 | – | > 100 | > 100 | > 100 | > 100 | > 100 | > 100 | > 100 | – | – | – | – | – | – | – | –
Cc1n(CC(C)C)c2c([n+]1CC(=O)c1ccc([N+](=O)[O-])cc1)C(=O)c1ccccc1C2=O | – | 0.933 | – | < 0.0205 | – | – | 2.91 | 0.055 | 0.757 | 0.0107 | – | – | – | – | – | – | – | – | –
CCN(CC)CCNc1ccc2ncn3c4c(OC)ccc(=O)c4c(O)c1c23 | > 100 | > 100 | > 100 | 98.6 | > 100 | > 100 | > 50.9 | > 100 | 17.8 | > 100 | > 100 | – | – | – | – | – | – | – | –
O=C1CSC(c2ccccc2[N+](=O)[O-])N1c1ccc(-n2c(-c3ccccc3)nc3ccccc3c2=O)cc1 (stereo unspecified) | > 100 | > 100 | > 100 | > 100 | > 100 | > 100 | > 100 | > 100 | > 100 | > 100 | > 100 | – | – | – | – | – | – | – | –
Cc1ccc(C(=O)c2[nH]c(Nc3ccc(Cl)cc3)c(C(=S)Nc3ccccc3)c2N)cc1 | 6.4 | 5.29 | 19 | 19.8 | 19.7 | 20.6 | 17.1 | 4.32 | 18 | 27.4 | 20.5 | – | – | – | – | – | – | – | –
Cc1cn(CCCCOC(=O)NC(CCCNC(N)=O)C(=O)O)c(=O)[nH]c1=O (stereo unspecified) | > 100 | > 100 | > 100 | – | > 100 | > 100 | > 100 | > 100 | > 100 | > 100 | > 100 | – | – | – | – | – | – | – | –
N#Cc1nc(NC(=O)c2ccccc2)sc1N | > 10 | > 10 | > 10 | > 10 | > 10 | > 10 | > 10 | > 10 | > 10 | > 10 | – | – | – | – | – | – | – | – | –
CCOC(=O)c1nc2cc(C(F)(F)F)ccc2nc1Oc1ccc(C(=O)OC)cc1 | > 100 | > 100 | > 100 | > 100 | > 100 | > 100 | > 100 | > 100 | > 100 | > 100 | > 100 | – | – | – | – | – | – | – | –
Nc1nc(NCC2(CO)CC(CCc3ccccc3)C2)cc(=O)[nH]1 (stereo unspecified) | > 100 | > 100 | > 100 | > 100 | > 100 | > 100 | > 100 | > 100 | > 100 | > 100 | > 100 | – | – | – | – | – | – | – | –
CC(=O)[C@]1(C)[C@H](C)O[C@](C)(CO)[C@H]1O[Si](C)(C)c1ccccc1 | > 100 | > 100 | > 100 | > 100 | > 100 | > 100 | > 100 | > 100 | > 100 | > 100 | – | – | – | – | – | – | – | – | –
CC1=C2c3ccccc3N(S(=O)(=O)c3ccccc3)[C@H]2[C@H](C(=O)N2C3CC4CC[C@@]3(CS2(=O)=O)C4(C)C)CC1 (stereo partly specified) | > 100 | > 100 | > 100 | > 100 | > 100 | – | > 100 | > 100 | 7.05 | > 100 | 81.7 | – | – | – | – | – | – | – | –
Oc1c2c(c3c4c1N=CC=4CCN=3)C1(C=C(Br)C(O)C(Br)=C1)CCN2 (stereo unspecified) | – | 12.5 | 4.94 | – | – | – | 2.77 | 2.86 | 7.41 | 3.44 | – | – | – | – | – | – | – | – | –
CCCCC1=CC1(C#N)[N+](=O)[O-] (stereo unspecified) | > 100 | > 100 | > 100 | > 100 | > 100 | – | > 100 | > 100 | > 100 | > 100 | > 100 | – | – | – | – | – | – | – | –
CC(=O)OC(C#N)CC(C)(C)/[N+]([O-])=[N+](\[O-])C(C)(C)CC(C#N)OC(C)=O (stereo unspecified) | 24.7 | > 100 | 39.7 | 47.4 | 33.8 | 30.3 | 79.3 | 33.9 | 40.2 | 35.7 | 36.6 | – | – | – | – | – | – | – | –
COC(=O)C1CCC[C@H]2C(CO)=C(C)C(=O)[C@@H]12 (stereo partly specified) | > 100 | > 100 | > 100 | > 100 | – | – | – | > 100 | > 100 | > 100 | – | – | – | – | – | – | – | – | –
COc1cc(/C=C2/C(=O)N=C(NC(C)=O)N2C)ccc1OC(C)=O | > 100 | > 100 | > 100 | – | > 100 | > 100 | > 100 | > 100 | – | > 100 | > 100 | – | – | – | – | – | – | – | –
c1ccc(C2=NN[C@H](c3cn(-c4ccccc4)nc3-c3ccccc3)C2)cc1 | – | > 100 | > 100 | > 100 | > 100 | – | > 100 | – | > 100 | > 100 | > 100 | 4.02 | 5.9 | 4 | 8.98 | > 100 | 3.98 | > 100 | 4.18
CCCCCCCSCC1OC(n2cnc3c(N)ncnc32)C(O)C1O (stereo unspecified) | – | > 100 | 56.2 | > 100 | – | – | – | 93 | 69 | 65.4 | – | – | – | – | – | – | – | – | –
